Assay results from ChEMBL document CHEMBL1671777, “X-ray crystal structure and binding mode analysis of human S-adenosylhomocysteine hydrolase complexed with novel mechanism-based inhibitors, haloneplanocin A analogues” (J Med Chem, 2011).

What follows are compounds tested against Adenosylhomocysteinase (Homo sapiens, UniProt P23526) (assay: Inhibition of human placental AdoHcy hydrolase expressed in Escherichia coli JM109).
Adenosylhomocysteinase, sequence (P23526 whole entry): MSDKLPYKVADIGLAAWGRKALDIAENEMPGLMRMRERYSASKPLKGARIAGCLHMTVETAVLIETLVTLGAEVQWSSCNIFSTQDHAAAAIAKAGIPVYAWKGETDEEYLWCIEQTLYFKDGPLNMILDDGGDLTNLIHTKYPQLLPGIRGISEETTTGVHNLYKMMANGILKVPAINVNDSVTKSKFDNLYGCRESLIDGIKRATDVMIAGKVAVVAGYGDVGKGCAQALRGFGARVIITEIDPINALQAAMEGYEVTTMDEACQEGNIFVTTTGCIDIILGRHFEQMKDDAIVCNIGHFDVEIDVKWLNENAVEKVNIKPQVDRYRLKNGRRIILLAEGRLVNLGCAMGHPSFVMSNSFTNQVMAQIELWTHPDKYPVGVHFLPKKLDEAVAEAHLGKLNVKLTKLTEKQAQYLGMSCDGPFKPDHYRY

IC50	SMILES
60.2 µM	Nc1ncnc2c1ncn2[C@@H]1C(Br)=C(CO)[C@@H](O)[C@H]1O
36.5 µM	Nc1ncnc2c1ncn2[C@@H]1C(Cl)=C(CO)[C@@H](O)[C@H]1O
7.67 µM	Nc1ncnc2c1ncn2[C@@H]1C(F)=C[C@@H](O)[C@H]1O
> 1000 µM	Nc1ncnc2c1ncn2[C@@H]1C(Br)=C[C@@H](O)[C@H]1O
0.87 µM	Nc1ncnc2c1ncn2[C@@H]1C=C(CO)[C@@H](O)[C@H]1O [NEOPLANOCIN A]
> 1000 µM	Nc1ncnc2c1ncn2[C@@H]1C(I)=C(CO)[C@@H](O)[C@H]1O
> 1000 µM	Nc1ncnc2c1ncn2[C@@H]1C(I)=C[C@@H](O)[C@H]1O
> 1000 µM	Nc1ncnc2c1ncn2[C@@H]1C(Cl)=C[C@@H](O)[C@H]1O
5.83 µM	Nc1ncnc2c1ncn2[C@@H]1C=C[C@@H](O)[C@H]1O
